From ChEMBL document CHEMBL1201862, “PubChem BioAssay data set” (2004) come the findings set out here.

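Cells were grown in 96-well plates and exposed to each compound for 48 hours at five concentrations; endpoints were interpolated linearly between bracketing concentrations, or set to the highest concentration if not reached. Here, GI50 denotes the concentration required for 50% inhibition of growth.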 Activity calls are given as the source filed them. No stated cut-off is given here; in the data, active = GI50 up to about 1.1 µM and inactive = higher. Where only a bound is given, the exact number is not on record here.

Test systems include KM12; K562; OVCAR-3; SNB-75; HCT-15; LOX IMVI; IGROV-1; SK-MEL-5; RPMI-8226; SNB-19; SW-620; SK-OV-3; SF-268; OVCAR-5; HOP-92; NCI-H522; CAKI-1.
Holding throughout (assay): inhibition of tumour cell growth, NCI panel, 48 h

For the compound `COc1ccc(C(O)/C(=C/n2ccnc2)c2ccccc2)cc1OC` (stereo not given), the GI50 in the assay with KM12 is > 100 µM (inactive); in the assay with K562 it was > 100 µM (inactive); in the assay with OVCAR-3, > 100 µM (inactive); in the assay with SNB-75 it was 49.4 µM (inactive); with HCT-15, over 100 µM; in the assay on LOX IMVI, > 100 µM (inactive). Moreover, the GI50 in the assay on IGROV-1, with SK-MEL-5, in the assay on RPMI-8226, in the assay with SNB-19, in the assay on SW-620 and in the assay on SK-OV-3 was > 100 µM (inactive) throughout. The GI50 with SF-268, in the assay with OVCAR-5 and with HOP-92 was > 100 µM (inactive) each time.

With `COc1ccc2c(c1)Oc1cc(O)ccc1[C@@H]2c1ccccc1C(=O)NC(C)c1ccccc1` (stereo not given in full), the GI50 in the assay with NCI-H522 is 14.4 µM (inactive); in the assay with KM12, 13.4 µM (inactive); in the assay on K562, 14.8 µM (inactive); in the assay with OVCAR-3, 15.9 µM (inactive); in the assay with SNB-75 it was 14.7 µM (inactive); with HCT-15 it was 13.7 µM. Moreover, the GI50 was 15.9 µM (inactive) in the assay on LOX IMVI; 18.2 µM (inactive) with IGROV-1; 17.7 µM (inactive) in the assay on SK-MEL-5; 6.49 µM (inactive) with RPMI-8226; 15.6 µM (inactive) in the assay on SNB-19; 19 µM (inactive) in the assay on SW-620. The GI50 in the assay on SK-OV-3 was 23.1 µM (inactive); with CAKI-1, 20.6 µM (inactive); in the assay with SF-268, 19.1 µM (inactive); in the assay with OVCAR-5, 16.4 µM (inactive).

Turning to `Cc1ccc(C(=O)NCCN(C)C)c2nc3ccccc3cc12`, the GI50 with KM12 was 1.1 µM (active); in the assay with K562 it was 1.4 µM (inactive); in the assay with OVCAR-3, 1.32 µM (inactive); with SNB-75 it was 1.52 µM (inactive); in the assay on HCT-15 it was 0.644 µM; in the assay with LOX IMVI it was 0.561 µM (active). Besides, the GI50 was 6.58 µM (inactive) with IGROV-1; 1.52 µM (inactive) in the assay with SK-MEL-5; 4.24 µM (inactive) with RPMI-8226; 2.36 µM (inactive) in the assay on SNB-19; 0.445 µM (active) in the assay with SW-620; 30.3 µM (inactive) with SK-OV-3. In addition, the GI50 was 1.79 µM (inactive) in the assay with CAKI-1, 1.94 µM (inactive) in the assay with OVCAR-5 and 14 µM (inactive) in the assay with HOP-92.

For `N#C/C(=C1\SCC(=O)N1c1ccccc1)c1nc2ccccc2[nH]1`, the GI50 in the assay with NCI-H522 is > 100 µM (inactive); in the assay with K562, > 100 µM (inactive); in the assay with OVCAR-3, > 100 µM (inactive); with SNB-75, > 100 µM (inactive); in the assay on HCT-15, over 100 µM; in the assay with LOX IMVI, > 100 µM (inactive). The GI50 in the assay with IGROV-1, in the assay with SK-MEL-5, in the assay on SNB-19, in the assay on SW-620, in the assay with SK-OV-3 and with CAKI-1 was > 100 µM (inactive) each time. In addition, the GI50 in the assay with SF-268, with OVCAR-5 and with HOP-92 was > 100 µM (inactive) each time.

As to `CCN(CC)CC(C(=O)Nc1c(C)cccc1C)/C(C)=N\NC(=O)c1ccncc1` (stereo not given), the GI50 in the assay on NCI-H522 is > 100 µM (inactive); in the assay with KM12 it was > 100 µM (inactive); with OVCAR-3, > 100 µM (inactive); in the assay on SNB-75, > 100 µM (inactive); in the assay with HCT-15 it was over 100 µM; in the assay with LOX IMVI, > 100 µM (inactive). For the same compound, the GI50 with IGROV-1, in the assay with SK-MEL-5, in the assay on SNB-19, in the assay with SK-OV-3, in the assay on CAKI-1 and with SF-268 was > 100 µM (inactive) each time. For the same compound, the GI50 with OVCAR-5 and in the assay with HOP-92 was > 100 µM (inactive) throughout.

As to `CCOC(=O)C1=C(C)N(NC(N)=O)C2(N)N(NC(N)=O)C(C)=C(C(=O)OCC)C12C#N` (stereo not given), the GI50 with NCI-H522 was > 100 µM (inactive); in the assay with KM12, > 100 µM (inactive); with K562, > 100 µM (inactive); with OVCAR-3, > 100 µM (inactive); in the assay on SNB-75 it was > 100 µM (inactive); in the assay on HCT-15, over 100 µM. Moreover, the GI50 with LOX IMVI, with IGROV-1, in the assay with SK-MEL-5, in the assay on RPMI-8226, in the assay with SNB-19 and in the assay on SW-620 was > 100 µM (inactive) each time. For the same compound, the GI50 with SK-OV-3, in the assay with CAKI-1, in the assay with SF-268 and with OVCAR-5 was > 100 µM (inactive) throughout.

Take `COC(=O)N/N=C(\C(=O)Nc1cccc([N+](=O)[O-])c1)c1nc2ccc([N+](=O)[O-])cc2nc1O`: the GI50 in the assay on NCI-H522 is 3.47 µM (inactive); in the assay on KM12 it was 29.4 µM (inactive); in the assay on K562, 11.4 µM (inactive); in the assay on OVCAR-3, 49.8 µM (inactive); in the assay on SNB-75, 85.7 µM (inactive); with LOX IMVI, 18.6 µM (inactive). Moreover, the GI50 was 64.6 µM (inactive) in the assay with IGROV-1; 34 µM (inactive) in the assay on SK-MEL-5; 32.7 µM (inactive) with RPMI-8226; > 100 µM (inactive) in the assay with SNB-19; 45.1 µM (inactive) in the assay with SW-620; > 100 µM (inactive) in the assay with SK-OV-3. In addition, the GI50 with SF-268 was 0.38 µM (active); in the assay with OVCAR-5, > 100 µM (inactive); in the assay on HOP-92, 61.2 µM (inactive).

Take `O=[N+]([O-])c1cnn(C2=CNc3ccccc3N=C2)c1`: the GI50 with OVCAR-3 was > 100 µM (inactive); with SNB-75, 43.8 µM (inactive); in the assay on HCT-15, over 100 µM; in the assay on SNB-19 it was > 100 µM (inactive); in the assay on SK-OV-3, > 100 µM (inactive); with SF-268, > 100 µM (inactive). Further, the GI50 in the assay on OVCAR-5 and in the assay with HOP-92 was > 100 µM (inactive) in each case.

For `O=C1CC[C@@H](S(=O)(=O)c2ccccc2)[C@@H](/C=C/c2ccccc2)O1`, the GI50 with NCI-H522 is > 100 µM (inactive); in the assay on KM12 it was > 100 µM (inactive); with K562 it was > 100 µM (inactive); with OVCAR-3 it was > 100 µM (inactive); with SNB-75 it was > 100 µM (inactive); with HCT-15, over 100 µM. In addition, the GI50 in the assay on LOX IMVI, in the assay with IGROV-1, in the assay with SK-MEL-5, in the assay with RPMI-8226, in the assay on SNB-19 and in the assay on SW-620 was > 100 µM (inactive) throughout. The GI50 with SK-OV-3 and in the assay on OVCAR-5 was > 100 µM (inactive) throughout.

In the case of `Cc1ccc2c(ccc(/C=C\c3cc(C)c4cccnc4c3O)[n+]2C)c1`, the GI50 is 4.34 µM (inactive) in the assay with NCI-H522; 1.32 µM (inactive) in the assay on KM12; 0.385 µM (active) with K562; 2.01 µM (inactive) in the assay with OVCAR-3; 0.791 µM (active) in the assay with LOX IMVI; 6.24 µM (inactive) in the assay with IGROV-1. The GI50 in the assay on SK-MEL-5 was 0.372 µM (active); in the assay on RPMI-8226, 0.401 µM (active); in the assay with SNB-19, 6.08 µM (inactive); in the assay on SW-620 it was 1.66 µM (inactive); with CAKI-1, 5.53 µM (inactive); in the assay with SF-268, 9.25 µM (inactive). The GI50 in the assay on OVCAR-5 is 22 µM (inactive).

`CC(C)(C)CC(C)(C)NCC(O)COc1ccc(C(C)(C)c2ccc(OCC(O)CNC(C)(C)CC(C)(C)C)cc2)cc1` (stereo not given): the GI50 in the assay on NCI-H522 is 1.61 µM (inactive); in the assay on KM12, 1.56 µM (inactive); in the assay on K562 it was 0.244 µM (active); in the assay with OVCAR-3 it was 1.77 µM (inactive); in the assay on SNB-75, 1.6 µM (inactive); in the assay with HCT-15, 1.37 µM. The GI50 in the assay on LOX IMVI is 0.429 µM (active); with IGROV-1 it was 1.77 µM (inactive); in the assay on SK-MEL-5, 1.32 µM (inactive); in the assay with RPMI-8226, 1.46 µM (inactive); with SNB-19, 1.64 µM (inactive); with SW-620, 0.213 µM (active). For the same compound, the GI50 was 1.77 µM (inactive) in the assay on SK-OV-3; 1.75 µM (inactive) in the assay with CAKI-1; 1.86 µM (inactive) in the assay on SF-268; 1.88 µM (inactive) with OVCAR-5; 1.78 µM (inactive) with HOP-92.

As to `COC(=O)C1=C(C[S+]([O-])c2ccc([N+](=O)[O-])cc2[N+](=O)[O-])C2C=CC1C2` (stereo not given), the GI50 in the assay on NCI-H522 is 13.8 µM (inactive); in the assay with KM12, 40.3 µM (inactive); in the assay with K562, 19 µM (inactive); with OVCAR-3, 23.1 µM (inactive); in the assay on SNB-75, 25.3 µM (inactive); with HCT-15, 15.7 µM. Besides, the GI50 in the assay with LOX IMVI was 13.5 µM (inactive); with IGROV-1, 64.9 µM (inactive); in the assay on SK-MEL-5 it was 63.2 µM (inactive); in the assay with RPMI-8226, 77.1 µM (inactive); in the assay on SNB-19, > 100 µM (inactive); in the assay with SW-620, 14.4 µM (inactive). Also, the GI50 in the assay with SK-OV-3 was 38.3 µM (inactive); in the assay on CAKI-1, 21.1 µM (inactive); with SF-268, 41 µM (inactive); with OVCAR-5, > 100 µM (inactive).

As for `COC1O[C@@H]2COC(C)(C)O[C@@H]2C(=O)N1Nc1ccc([N+](=O)[O-])cc1` (stereo not given in full), the GI50 was > 100 µM (inactive) with KM12; > 100 µM (inactive) in the assay on K562; > 100 µM (inactive) in the assay on OVCAR-3; > 100 µM (inactive) with SNB-75; over 100 µM in the assay on HCT-15; 31.9 µM (inactive) with LOX IMVI. For the same compound, the GI50 with IGROV-1 was > 100 µM (inactive); in the assay with SK-MEL-5 it was > 100 µM (inactive); in the assay with RPMI-8226, 21 µM (inactive); in the assay with SNB-19, > 100 µM (inactive); with SW-620, 25.1 µM (inactive); with SK-OV-3, > 100 µM (inactive). Further, the GI50 in the assay with CAKI-1, with SF-268, in the assay with OVCAR-5 and with HOP-92 was > 100 µM (inactive) in each case.
